Patent publication US20240142467A1, “Use of Biomarkers in the Treatment of Fibrotic Conditions with a PDE4B-inhibitor” (Boehringer Ingelheim International GmbH, priority 2022, published 2024)

Test system: patients with idiopathic pulmonary fibrosis
Experiment: Phase 2 trial NCT04419506: biomarker analysis in blood plasma or serum (ELISA, Luminex; MMRM)
Format: in vivo, human
Experimental: Blood samples were collected from patients during the clinical phase 2 trial at baseline, at 2, 4, 8 and 12 weeks (after baseline) of the “Compound of formula A′ treatment arm” and of the “Placebo arm”, and blood plasma and/or blood serum was prepared according to methods known in the art.
Fibrosis-related biomarkers were assessed in plasma or serum using ELISA or Luminex technologies. The changes in these fibrosis-related biomarkers at weeks 2, 4, 8 and 12 after baseline were analysed using mixed models with repeated measures (MMRM). The fold changes in the tested biomarkers over baseline over time were then compared between patients of the of the “Compound of formula A′ treatment arm” and patients of the “Placebo arm”.
Biomarker values were only considered valid up to +2 days for CRP and up to +7 days after last drug intake for all other proteins.
At MLM (MLM Medical Labs GmbH, Mönchengladbach, Germany, www.mlm-labs.com) the biomarker KL-6 (Krebs von den Lungen) was measured using CLEIA Test kits (Lumipulse® G KL-6 Immunoreaction Cartridges) from Fujirebio (www.fujirebio.com) and a Lumipulse G1200 system, the biomarker sICAM-1 was measured using an ECLIA assay (V-PLEX Plus Vascular Injury Panel 2 Human Kit) from Meso Scale Discovery (MSD) on the Meso QuickPlex SQ120 device, and the biomarker MMP-7 was measured using a Quantikine® ELISA assay (Human MMP-7/PARC Quantikine® ELISA kit) from R&D Systems on a TECAN Absorbance Reader, according to manufacturer's instructions.
The biomarkers CA-125, CA19-9, COMP, CRP, E-selectin, sICAM-1, MMP-3, MMP-7, Prostasin, TIMP-1, and vWF were measured using validated microsphere-based immune-multiplexing assays using Luminex technology at MyriadRBM (Rules Based Medicine, a q2 solutions company, Austin, Texas, USA, www.rbm.q2labsolutions.com).
The biomarker data as collected from the different treatment groups of the phase II trial have been analysed with regard to three different aspects: • 1. The biomarker data has been analysed with regard to the “pharmacodynamic potential” of each respective biomarker, that means the change from baseline (CfB) of the biomarker level over time during treatment with the compound of formula A′ has been analysed. […] The biomarker data has been analysed with regard to the “prognostic potential” of each respective biomarker, that means the level of biomarker at baseline vs. clinical outcome after 12 weeks (=the absolute FVC [mL] change from baseline at week 12 and the absolute change from baseline in Dlco % predicted at week 12) in the Placebo groups has been analysed which is disease-related and may be used to assess the progression of the disease (e.g. fast vs. slow progressors). • 3. The biomarker data has been analysed with regard to their “outcome-related potential” of each respective biomarker, that means the change from baseline (CfB) in biomarker level vs. the clinical outcomes after 12 weeks (=the absolute FVC [mL] change from baseline at week 12 and the absolute change from baseline in Dlco % predicted at week 12) in the compound of formula A′ treatment groups has been analysed. Hereby, a potential early prediction of both clinical endpoint and treatment effect may be achieved.

[1] = AF-background, listed as Comp. A′
[2] = Non-AF-background, listed as Comp. A′

[O-][S@+]1CCc2nc(N3CCC(c4ncc(Cl)cn4)CC3)nc(NC3(CO)CCC3)c21 [Compound of formula A′]
CRP: change of biomarker from baseline to Week 12 in Comp. A′ arm vs. Placebo arm (AF-background): increased
E-selectin: change of biomarker from baseline to Week 12 in Comp. A′ arm vs. Placebo arm (AF-background): decreased
KL-6: change of biomarker from baseline to Week 12 in Comp. A′ arm vs. Placebo arm (AF-background): decreased
Matrilysin (MMP7, MLM): change of biomarker from baseline to Week 12 in Comp. A′ arm vs. Placebo arm (AF-background): decreased
Prostasin: change of biomarker from baseline to Week 12 in Comp. A′ arm vs. Placebo arm (AF-background): ↓
SP-D: change of biomarker from baseline to Week 12 in Comp. A′ arm vs. Placebo arm (AF-background): decreased
CA19.9 (U/mL): fold change from baseline to Week 4, adjusted mean (AF-background, blood, MMRM): 0.987
CA19.9 (U/mL): fold change from baseline to Week 12, adjusted mean (AF-background, blood, MMRM): 0.914
CA-125 (MUC-16) (U/mL): fold change from baseline to Week 4, adjusted mean (AF-background, blood, MMRM): 1.030
CA-125 (MUC-16) (U/mL): fold change from baseline to Week 12, adjusted mean (AF-background, blood, MMRM): 1.067
COMP (μg/L): fold change from baseline to Week 4, adjusted mean (AF-background, blood, MMRM): 0.991
COMP (μg/L): fold change from baseline to Week 12, adjusted mean (AF-background, blood, MMRM): 1.023
CRP (mg/L): fold change from baseline to Week 4, adjusted mean (AF-background, blood, MMRM): 1.780
CRP (mg/L): fold change from baseline to Week 12, adjusted mean (AF-background, blood, MMRM): 1.545
E-selectin (μg/L): fold change from baseline to Week 4, adjusted mean (AF-background, blood, MMRM): 0.933
E-selectin (μg/L): fold change from baseline to Week 12, adjusted mean (AF-background, blood, MMRM): 0.936
KL-6 (U/mL): fold change from baseline to Week 4, adjusted mean (AF-background, blood, MMRM): 0.960
KL-6 (U/mL): fold change from baseline to Week 12, adjusted mean (AF-background, blood, MMRM): 0.923
Matrilysin (μg/L) (MMP7, MLM): fold change from baseline to Week 4, adjusted mean (AF-background, blood, MMRM): 0.941
Matrilysin (μg/L) (MMP7, MLM): fold change from baseline to Week 12, adjusted mean (AF-background, blood, MMRM): 0.981
Prostasin (μg/L): fold change from baseline to Week 4, adjusted mean (AF-background, blood, MMRM): 0.939
Prostasin (μg/L): fold change from baseline to Week 12, adjusted mean (AF-background, blood, MMRM): 0.933
SP-D (μg/L): fold change from baseline to Week 4, adjusted mean (AF-background, blood, MMRM): 0.879
SP-D (μg/L): fold change from baseline to Week 12, adjusted mean (AF-background, blood, MMRM): 0.894
Stromelysin-1 MMP3) (μg/L): fold change from baseline to Week 4, adjusted mean (AF-background, blood, MMRM): 1.063
Stromelysin-1 MMP3) (μg/L): fold change from baseline to Week 12, adjusted mean (AF-background, blood, MMRM): 1.056
sICAM1 (RBM) (μg/L): fold change from baseline to Week 4, adjusted mean (AF-background, blood, MMRM): 1.049
sICAM1 (RBM) (μg/L): fold change from baseline to Week 12, adjusted mean (AF-background, blood, MMRM): 1.069
vWF (mg/L): fold change from baseline to Week 4, adjusted mean (AF-background, blood, MMRM): 1.035
vWF (mg/L): fold change from baseline to Week 12, adjusted mean (AF-background, blood, MMRM): 0.964
CRP: change of biomarker from baseline to Week 12 in Comp. A′ arm vs. Placebo arm [1]: ↑ (significant increase)
E-selectin: change of biomarker from baseline to Week 12 in Comp. A′ arm vs. Placebo arm [1]: ↓
KL-6: change of biomarker from baseline to Week 12 in Comp. A′ arm vs. Placebo arm [1]: ↓ (significant decrease)
Matrilysin (MMP7, MLM): change of biomarker from baseline to Week 12 in Comp. A′ arm vs. Placebo arm [1]: ↓
SP-D: change of biomarker from baseline to Week 12 in Comp. A′ arm vs. Placebo arm [1]: ↓ (significant decrease)
CA19-9: change of biomarker from baseline to Week 12 in Comp. A′ arm vs. Placebo arm (Non-AF-background): ↓
CA-125 (MUC-16): change of biomarker from baseline to Week 12 in Comp. A′ arm vs. Placebo arm (Non-AF-background): decreased
COMP: change of biomarker from baseline to Week 12 in Comp. A′ arm vs. Placebo arm (Non-AF-background): decreased
CRP: change of biomarker from baseline to Week 12 in Comp. A′ arm vs. Placebo arm (Non-AF-background): increased
E-selectin: change of biomarker from baseline to Week 12 in Comp. A′ arm vs. Placebo arm (Non-AF-background): decreased
KL-6: change of biomarker from baseline to Week 12 in Comp. A′ arm vs. Placebo arm (Non-AF-background): decreased
Matrilysin (MMP7, MLM): change of biomarker from baseline to Week 12 in Comp. A′ arm vs. Placebo arm (Non-AF-background): decreased
Prostasin: change of biomarker from baseline to Week 12 in Comp. A′ arm vs. Placebo arm (Non-AF-background): decreased
SP-D: change of biomarker from baseline to Week 12 in Comp. A′ arm vs. Placebo arm (Non-AF-background): decreased
Stromelysin-1 (MMP3): change of biomarker from baseline to Week 12 in Comp. A′ arm vs. Placebo arm (Non-AF-background): ↓
sICAM1 (RBM): change of biomarker from baseline to Week 12 in Comp. A′ arm vs. Placebo arm (Non-AF-background): basically the same
vWF: change of biomarker from baseline to Week 12 in Comp. A′ arm vs. Placebo arm (Non-AF-background): decreased
CA19-9 (U/mL): fold change from baseline to Week 4, adjusted mean (Non-AF-background, blood, MMRM): 0.901
CA19-9 (U/mL): fold change from baseline to Week 12, adjusted mean (Non-AF-background, blood, MMRM): 1.016
CA-125 (MUC-16) (U/mL): fold change from baseline to Week 4, adjusted mean (Non-AF-background, blood, MMRM): 0.956
CA-125 (MUC-16) (U/mL): fold change from baseline to Week 12, adjusted mean (Non-AF-background, blood, MMRM): 1.039
COMP (μg/L): fold change from baseline to Week 4, adjusted mean (Non-AF-background, blood, MMRM): 0.970
COMP (μg/L): fold change from baseline to Week 12, adjusted mean (Non-AF-background, blood, MMRM): 0.949
CRP (mg/L): fold change from baseline to Week 4, adjusted mean (Non-AF-background, blood, MMRM): 2.134
CRP (mg/L): fold change from baseline to Week 12, adjusted mean (Non-AF-background, blood, MMRM): 1.479
E-selectin (μg/L): fold change from baseline to Week 4, adjusted mean (Non-AF-background, blood, MMRM): 0.943
E-selectin (μg/L): fold change from baseline to Week 12, adjusted mean (Non-AF-background, blood, MMRM): 0.982
KL-6 (U/mL): fold change from baseline to Week 4, adjusted mean (Non-AF-background, blood, MMRM): 0.911
KL-6 (U/mL): fold change from baseline to Week 12, adjusted mean (Non-AF-background, blood, MMRM): 0.916
Matrilysin (μg/L) (MMP7, MLM): fold change from baseline to Week 4, adjusted mean (Non-AF-background, blood, MMRM): 0.908
Matrilysin (μg/L) (MMP7, MLM): fold change from baseline to Week 12, adjusted mean (Non-AF-background, blood, MMRM): 0.883
Prostasin (μg/L): fold change from baseline to Week 4, adjusted mean (Non-AF-background, blood, MMRM): 0.883
Prostasin (μg/L): fold change from baseline to Week 12, adjusted mean (Non-AF-background, blood, MMRM): 0.905
SP-D (μg/L): fold change from baseline to Week 4, adjusted mean (Non-AF-background, blood, MMRM): 0.833
SP-D (μg/L): fold change from baseline to Week 12, adjusted mean (Non-AF-background, blood, MMRM): 0.875
Stromelysin-1 MMP3) (μg/L): fold change from baseline to Week 4, adjusted mean (Non-AF-background, blood, MMRM): 0.963
Stromelysin-1 MMP3) (μg/L): fold change from baseline to Week 12, adjusted mean (Non-AF-background, blood, MMRM): 0.960
sICAM1 (RBM) (μg/L): fold change from baseline to Week 4, adjusted mean (Non-AF-background, blood, MMRM): 0.956
sICAM1 (RBM) (μg/L): fold change from baseline to Week 12, adjusted mean (Non-AF-background, blood, MMRM): 0.937
vWF (μg/L) (mg/L): fold change from baseline to Week 4, adjusted mean (Non-AF-background, blood, MMRM): 0.991
vWF (μg/L) (mg/L): fold change from baseline to Week 12, adjusted mean (Non-AF-background, blood, MMRM): 0.972
CA-125 (MUC-16): change of biomarker from baseline to Week 12 in Comp. A′ arm vs. Placebo arm [2]: ↓ (minor decrease)
COMP: change of biomarker from baseline to Week 12 in Comp. A′ arm vs. Placebo arm [2]: ↓
CRP: change of biomarker from baseline to Week 12 in Comp. A′ arm vs. Placebo arm [2]: ↑ (significant increase)
E-selectin: change of biomarker from baseline to Week 12 in Comp. A′ arm vs. Placebo arm [2]: ↓
KL-6: change of biomarker from baseline to Week 12 in Comp. A′ arm vs. Placebo arm [2]: ↓ (significant decrease)
Matrilysin (MMP7, MLM): change of biomarker from baseline to Week 12 in Comp. A′ arm vs. Placebo arm [2]: ↓ (significant decrease)
Prostasin: change of biomarker from baseline to Week 12 in Comp. A′ arm vs. Placebo arm [2]: ↓
SP-D: change of biomarker from baseline to Week 12 in Comp. A′ arm vs. Placebo arm [2]: ↓ (significant decrease)
vWF: change of biomarker from baseline to Week 12 in Comp. A′ arm vs. Placebo arm [2]: ↓
elevation of the CRP-levels (treatment groups regardless of background therapy): approximately 2 ×
